Experiments:
[1] = target: T1, CaR (Homo sapiens, UniProt P41180); test: Cytosolic calcium changes in purified monocytes (Indo-1/AM, flow cytometry); assay type: cell-based
T1 construct: endogenous in cells; host or cells: peripheral blood CD14+ monocytes, sorted by FACS
T1 sequence (P41180 20-1078): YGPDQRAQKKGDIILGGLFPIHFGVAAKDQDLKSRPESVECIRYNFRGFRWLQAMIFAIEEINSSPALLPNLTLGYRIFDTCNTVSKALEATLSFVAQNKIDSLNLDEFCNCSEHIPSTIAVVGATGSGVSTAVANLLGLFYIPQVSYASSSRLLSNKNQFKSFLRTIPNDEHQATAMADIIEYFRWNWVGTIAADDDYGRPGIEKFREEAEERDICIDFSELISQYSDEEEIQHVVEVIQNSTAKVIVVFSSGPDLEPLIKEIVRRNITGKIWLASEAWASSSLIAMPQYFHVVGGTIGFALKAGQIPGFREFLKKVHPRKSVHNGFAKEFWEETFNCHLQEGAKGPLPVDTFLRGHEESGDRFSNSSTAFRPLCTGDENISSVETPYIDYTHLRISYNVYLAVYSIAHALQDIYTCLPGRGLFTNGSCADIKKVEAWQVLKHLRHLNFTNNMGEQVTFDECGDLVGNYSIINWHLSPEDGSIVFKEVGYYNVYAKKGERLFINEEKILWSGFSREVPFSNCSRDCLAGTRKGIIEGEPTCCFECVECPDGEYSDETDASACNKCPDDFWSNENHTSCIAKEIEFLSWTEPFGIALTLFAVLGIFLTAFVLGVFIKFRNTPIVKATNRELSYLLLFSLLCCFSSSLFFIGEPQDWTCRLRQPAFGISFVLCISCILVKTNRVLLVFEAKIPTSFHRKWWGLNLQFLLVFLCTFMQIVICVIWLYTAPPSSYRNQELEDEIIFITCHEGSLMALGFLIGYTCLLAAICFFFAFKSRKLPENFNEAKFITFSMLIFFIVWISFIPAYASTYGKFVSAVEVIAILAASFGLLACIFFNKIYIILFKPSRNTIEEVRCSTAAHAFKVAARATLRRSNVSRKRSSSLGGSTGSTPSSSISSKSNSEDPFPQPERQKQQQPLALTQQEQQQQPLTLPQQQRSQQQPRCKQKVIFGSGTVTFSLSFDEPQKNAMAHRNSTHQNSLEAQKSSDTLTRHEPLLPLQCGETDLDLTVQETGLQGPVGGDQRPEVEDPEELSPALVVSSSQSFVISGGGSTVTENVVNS
Procedure: Preparation of peripheral blood CD14^+ monocytes. Low density cells were isolated from human and mouse peripheral blood using Ficoll-Hypaque (Pharmacia, Piscataway, N.J.). CD14^+ monocytes were purified by sorting on FACSVantage (Becton Dickinson, San Jose, Calif.) based on CD14 expression. Purified cells were incubated in either calcium-free medium (Hanks' Balanced Salt Solution 1×, CellGro, Hermdon. VA) or Iscove's Medium 1×(Mod) (CellGro, Herndon, Va.) which contains 1.5 mM Ca++. […] Cells were incubated for up to 24 hours in 5% CO2 humidified air. Monocytes were then detached from the plate using a cell scraper. All calcium concentrations indicated in the presentation of the data represent the total Ca^++ present in the basal medium plus any added Ca^++.
Cytosolic calcium changes. Purified monocytes were loaded with Indo-1/AM (Molecular Probes, Eugene, Oreg.). Cells were collected on FACSVantage for 0.30 sec to establish a baseline emission value for Indo-1/AM. […] Data acquisition then continued for up to 5 minutes.

[2] = tested on: mononuclear cells derived from neonatal CaR −/−, +/− or +/+ mice; test: Transmigration assay with cells from CaR knockout and wild-type mice; assay type: cell-based, mouse; details: CaR −/− cells
Procedure: Transmigration assays. Transwells (5 μm pore size polycarbonate membrane, 12 mm diameter) (Costar, Corning, N.Y.) were used to assess cell migration using an established methodology (25). The concentration of Ca^++ in IMDM (CellGro, Herndon, Va.) in the upper and lower chambers of the transwell were adjusted according to a checkerboard analysis of chemotaxis. Calcium concentrations varied from 0 mM to 6.5 mM. Purified monocytes (1×10^4) were then placed in the top chamber with 150 μl of IMDM (CellGro, Hemdon, Va.). 500 μl of the medium was added to the bottom of the well and supplemented with varying concentrations of Ca^++ or with Ca^++ plus 10 ng/ml of MCP-1, 100 ng/ml of SDF-1α or 10 ng/ml of MIP-1α (PeproTech, Rocky Hills, N.Y.). Cells were incubated at 37° C. for 3 hours. To study inhibition of chemotaxis, cells were subsequently incubated with wortmannin (1 μM for 20 minutes at 37° C.), herbimycin (1 μM for 20 minutes at 37° C.) or genistein (1 μg/ml for 20 minutes at 37° C.), before their use in transmigration assays. At the end of the experiment, cells were then harvested from the lower chamber and counted using a hemocytometer.
CaR−/− were bred as previously described (Ho, C., et al., Nat Genet 1995, 11:389-94). To produce CaR−/− mice for this study, heterozygote mice were intercrossed. The mice studied were either 129S6/svev or 129S6/svev/Swiss Webster mixed genetic background. […]

[3] = tested on: CCR-5; details: elevated Ca^++
Procedure: (§1) Chemokine receptor expression and flow cytometric analysis. Purified monocytes were incubated in a Ca^++-free medium supplemented with 1 mM, 3 mM or 5 mM CaCl2 or with 1.5 mM CaCl2 plus 1 μM NPS R-467 or S-467. Cells were washed once in PBS with 1% FCS and resuspended in 100 μl of Ca^++-free PBS. Monoclonal antibody against the CaR was added to the cells and incubated alone or with the CaR peptide for 30 min at room temperature. Cells were washed with PBS containing 1% FCS, resuspended in PBS with 1% FCS and incubated for 15 min at room temperature with anti-mouse IgG conjugated to FITC. The cells were washed again and conjugated monoclonal antibody [anti-CXCR4, anti-CCR5 (Pharmingen, San Diego, Calif.); anti-CCR2 (R&D, Minneapolis, Minn.); anti-CD14 (Becton Dickinson, San Jose, Calif.); or anti-CD4 (Becton Dickinson, San Jose, Calif.)] was added and incubated for 15 min at room temperature. Stained cells were fixed with 1% paraformaldehyde and assayed within 24 hrs. Flow cytometric analysis was performed using a dual laser FACSCalibur (Becton Dickinson Immunocytometry Systems, San Jose, Calif.) calibrated using 2 μm Calibrite beads (Becton Dickinson). Data acquisition and analysis were performed using CellQuest software (Becton Dickinson).

[4] = tested on: CXCR-4; details: elevated Ca^++
Procedure: as §1

[5] = tested on: CD4; details: varying Ca^++ concentration
Procedure: as §1

Compound: [Ca+2].[Cl-].[Cl-] [Ca^++, calcium chloride]
- Increase in cytosolic calcium ([1]; 4.5 mM Ca^++): Sustained increases
- Extracellular Ca^++ concentration giving maximal cytosolic Ca^++ response ([1]; monocytes, dose dependent): 4.5 mM
- Transmigration to the Ca^++ gradient [2]: failed to transmigrate
- CCR-5 median fluorescence intensity [3]: failed to demonstrate any change
- CXCR-4 expression [4]: increased but did not achieve statistical significance
- Fluorescence intensity of anti-CD4 antibody staining [5]: did not vary

Reference: US7951364B2, “CaR receptor as a mediator of migratory cell chemotaxis and/or chemokinesis” (The General Hospital Corporation, priority 2000, dated 2011)
